Test system: colonic microbiota
Test: 16S rRNA gene sequencing, microbiota composition in the colon
Type: in vivo, Ross 308 broiler chickens
[1] = 0.1 g berberine/kg feed vs normal diet, 21 days, LinDA-normalized abundance
[2] = 0.1 g berberine/kg feed, 21 days
[3] = 0.5 g berberine/kg feed vs normal diet, 21 days, LinDA-normalized abundance
[4] = 0.5 g berberine/kg feed, 21 days
[5] = 1 g berberine/kg feed vs normal diet, 21 days, LinDA-normalized abundance

## COc1ccc2cc3[n+](cc2c1OC)CCc1cc2c(cc1-3)OCO2 [Berberine, Berberine chloride]
[1]
  L2 FC Family_ Peptostreptococcaceae, 0.1 vs 0: -1.21
  L2 FC GCA-900066575, 0.1 vs 0: 3.13
  L2 FC Lachnospiraceae UCG-010, 0.1 vs 0: 2.34
  L2 FC Romboutsia, 0.1 vs 0: -0.31
  L2 FC Ruminococcaceae UCG-014, 0.1 vs 0: 5.39
  L2 FC uncultured genus of Peptostreptococcaceae, 0.1 vs 0: -1.31
[2]
  Mean relative abundance (%) Family_ Peptostreptococcaceae: 0.11%
  Mean relative abundance (%) GCA-900066575: 0.59%
  Mean relative abundance (%) Lachnospiraceae UCG-010: 0.06%
  Mean relative abundance (%) Romboutsia: 0.14%
  Mean relative abundance (%) Ruminococcaceae UCG-014: 3.36%
  Mean relative abundance (%) uncultured genus of Peptostreptococcaceae: 13.82%
  Mean relative abundance of Peptostreptococcaceae: 14.07%
0.1 vs 0 g berberine/kg feed
  L2FC of LinDA-normalized abundance of Peptostreptococcaceae: -0.79
[3]
  L2 FC Family_ Peptostreptococcaceae, 0.5 vs 0: -2.31
  L2 FC GCA-900066575, 0.5 vs 0: 1.10
  L2 FC Lachnospiraceae UCG-010, 0.5 vs 0: 0.64
  L2 FC Romboutsia, 0.5 vs 0: -1.42
  L2 FC Ruminococcaceae UCG-014, 0.5 vs 0: 2.59
  L2 FC uncultured genus of Peptostreptococcaceae, 0.5 vs 0: -1.92
[4]
  Mean relative abundance (%) Family_ Peptostreptococcaceae: 0.13%
  Mean relative abundance (%) GCA-900066575: 0.53%
  Mean relative abundance (%) Lachnospiraceae UCG-010: 0.03%
  Mean relative abundance (%) Romboutsia: 0.11%
  Mean relative abundance (%) Ruminococcaceae UCG-014: 1.19%
  Mean relative abundance (%) uncultured genus of Peptostreptococcaceae: 15.49%
  Mean relative abundance of Peptostreptococcaceae: 15.73%
0.5 vs 0 g berberine/kg feed
  L2FC of LinDA-normalized abundance of Peptostreptococcaceae: -0.94
[5]
  L2 FC Family_ Peptostreptococcaceae, 1 vs 0: -6.62
  L2 FC GCA-900066575, 1 vs 0: 2.34
  L2 FC Lachnospiraceae UCG-010, 1 vs 0: 0.99
  L2 FC Romboutsia, 1 vs 0: -6.45
  L2 FC Ruminococcaceae UCG-014, 1 vs 0: 3.32
  L2 FC uncultured genus of Peptostreptococcaceae, 1 vs 0: -9.04
1 g berberine/kg feed, 21 days
  Mean relative abundance (%) Family_ Peptostreptococcaceae: 0.01%
  Mean relative abundance (%) GCA-900066575: 0.65%
  Mean relative abundance (%) Lachnospiraceae UCG-010: 0.06%
  Mean relative abundance (%) Romboutsia: 0.00%
  Mean relative abundance (%) Ruminococcaceae UCG-014: 1.02%
  Mean relative abundance (%) uncultured genus of Peptostreptococcaceae: 0.50%
  Mean relative abundance of Peptostreptococcaceae: 0.51%
1 vs 0 g berberine/kg feed
  L2FC of LinDA-normalized abundance of Peptostreptococcaceae: -8.67
Lowest concentration (0.1 g/kg feed), p = 0.026
  Observed number of OTUs: significantly increased

Source: publication PMC10733463, “Berberine-microbiota interplay: orchestrating gut health through modulation of the gut microbiota and metabolic transformation into bioactive metabolites” (Frontiers in Pharmacology, 2023)
